These results are taken from patent publication US7384931B2, “Constrained compounds as CGRP-receptor antagonists” (Bristol-Myers Squibb Company, priority 2004, dated 2008).

pIC50: −log10 of the molar value.

For assay [1], the target named is T1, CGRP receptor (Homo sapiens, UniProt O60894+Q16602). Briefly: CGRP radioligand binding assay ([125I]-CGRP displacement, SK-N-MC homogenate). Also noted: endogenous in cells; host or cells: SK-N-MC cells (homogenate/membrane pellet). As to conditions: displacement of [125I]-CGRP, room temperature 2 h. An outline of the steps:
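SK-N-MC cell homogenate (5 μg/well) was incubated 2 h at room temperature with [125I]-CGRP (diluted to 60 pM before addition) in 50 mM Tris-Cl pH 7.5, 5 mM MgCl2, 0.005% Triton X-100 plus protease inhibitors. Bound radioactivity was collected by filtration; 1 μM beta-CGRP defined non-specific binding. IC50 is 50% radioligand displacement.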
For orientation: Displacement assays read how much labelled ligand stays bound in the presence of the test substance.

For assay [2], the target named is T1, CGRP receptor. Description: Cyclic AMP functional antagonism assay in SK-N-MC cells. As to conditions: inhibition of 0.3 nM CGRP-induced cyclic AMP formation, 15 min pre-incubation, read-out: cAMP Function IC50. Also noted: SK—N-MC cells that endogenously express the human CGRP receptor; endogenous in cells; host or cells: SK-N-MC cells. The assay is classed as cell-based. The protocol:
Cyclic AMP Functional Antagonism Assay. Antagonism of the compounds of invention was determined by measuring the formation of cyclic AMP (adenosine 3′5′-cyclic monophosphate) in SK—N-MC cells that endogenously express the human CGRP receptor. CGRP receptor complex is coupled with Gs protein and CGRP binding to this complex leads to the cyclic AMP production via Gs—dependent activation of an adenylate cyclase (Juaneda C et al., TiPS, 2000; 21:432-438; incorporated by reference herein). Consequently, CGRP receptor antagonists inhibit CGRP—induced cyclic AMP formation in SK—N-MC cells (Doods H et al., Br J Pharmacol, 2000; 129(3):420-423); incorporated by reference herein). For cyclic AMP measurements SK—N-MC cells were incubated with 0.3 nM CGRP alone or in the presence of various concentrations of the compounds of invention for 30 min at room temperature. Compounds of invention were pre-incubated with SK—N-MC cells for 15 min before the addition of CGRP to allow receptor occupancy (Edvinsson et al., Eur J Pharmacol, 2001, 415:39-44; incorporated by reference herein). Cyclic AMP was extracted using the lysis reagent and its concentration was determined by radioimmunoassay using RPA559 cAMP SPA Direct Screening Assay Kit (Amersham Pharmacia Biotech). IC50 values were calculated using Excel fit.

T1 sequence (Q16602 23-461): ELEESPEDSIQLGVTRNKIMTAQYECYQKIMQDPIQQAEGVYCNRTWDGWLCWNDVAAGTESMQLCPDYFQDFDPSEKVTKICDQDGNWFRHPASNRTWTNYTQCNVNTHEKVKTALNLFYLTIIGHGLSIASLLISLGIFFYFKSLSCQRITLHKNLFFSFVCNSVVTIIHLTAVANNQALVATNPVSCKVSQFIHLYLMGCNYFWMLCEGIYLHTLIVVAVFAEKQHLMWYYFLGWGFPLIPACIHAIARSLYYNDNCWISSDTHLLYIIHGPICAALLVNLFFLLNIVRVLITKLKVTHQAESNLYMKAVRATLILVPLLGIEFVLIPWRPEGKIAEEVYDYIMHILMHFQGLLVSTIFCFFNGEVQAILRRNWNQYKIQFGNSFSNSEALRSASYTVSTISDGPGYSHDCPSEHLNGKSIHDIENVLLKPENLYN
T1 sequence (O60894 27-148): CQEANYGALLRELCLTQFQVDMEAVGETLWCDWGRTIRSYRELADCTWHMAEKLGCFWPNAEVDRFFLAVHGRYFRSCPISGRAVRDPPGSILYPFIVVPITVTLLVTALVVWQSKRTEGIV

In the case of `CC(C)(C)CN1Cc2c(cc(Cl)c3[nH]ncc23)C[C@@H](CC(=O)N2CCC(N3Cc4ccccc4NC3=O)CC2)C1=O` [Example 21, 4-Chloro-9-(2,2-dimethyl-propyl)-7-(S)-{2-oxo-2-[4-(2-oxo-1,4-dihydro-2H-quinazolin-3-yl)-piperidin-1-yl]-ethyl}-6,7,9,10-tetrahydro-3H-2,3,9-triaza-cyclohepta[e]inden-8-one], the pIC50 on CGRP receptor [1] and on CGRP receptor [2] was 8.00 to 10.00 in each case.
Consider `O=C(N[C@@H]1Cc2cc3cn[nH]c3cc2CN(Cc2ccccc2)C1=O)N1CCC(N2Cc3ccccc3NC2=O)CC1` [Example 37, (R)-N-(8-Benzyl-7-oxo-1,5,6,7,8,9-hexahydroazepino[4,3-f]indazol-6-yl)-4-(2-oxo-1,2-dihydroquinazolin-3(4H)-yl)piperidine-1-carboxamide], for which the pIC50 at CGRP receptor [1] is 8.00 to 10.00; at CGRP receptor [2], 7.00 to 8.00.
The matching figures for `CC(C)(C)CCN1Cc2c(ccc3[nH]ncc23)C[C@@H](NC(=O)N2CCC(N3Cc4ccccc4NC3=O)CC2)C1=O` [Example 16, 4-(2-Oxo-1,4-dihydro-2H-quinazolin-3-yl)-piperidine-1-carboxylic acid [9-(3,3-dimethyl-butyl)-8-oxo-3,6,7,8,9,10-hexahydro-2,3,9-triaza-(R)-cyclohepta[e]inden-7-yl]-amide]: 8.00 to 10.00 and 8.00 to 10.00.
The matching figures for `CC(C)(C)CN1Cc2c(cc(Cl)c3[nH]ncc23)C[C@@H](CC(=O)N2CCC3(CC2)NC(=O)Nc2ccccc23)C1=O` [Example 46]: 8.00 to 10.00 and 8.00 to 10.00.
`O=C(C[C@@H]1Cc2cc(Cl)c3[nH]ncc3c2CN(Cc2ccncc2)C1=O)N1CCC(n2cc(-c3ccccc3)[nH]c2=O)CC1` [Example 53, (S)-4-Chloro-7-(2-oxo-2-(4-(2-oxo-4-phenyl-2,3-dihydroimidazol-1-yl)piperidin-1-yl)ethyl)-9-(pyridin-4-ylmethyl)-6,7,9,10-tetrahydroazepino[3,4-e]indazol-8(3H)-one]: the pIC50 at CGRP receptor [1] and on CGRP receptor [2] was 8.00 to 10.00 in each case.
On to `CC(C)(C)CN1Cc2c(cc(Cl)c3[nH]ncc23)C[C@@H](NC(=O)N2CCC(N3Cc4ccccc4NC3=O)CC2)C1=O` [Example 20, 4-(2-Oxo-1,4-dihydro-2H-quinazolin-3-yl)-piperidine-1-carboxylic acid [4-chloro-9-(2,2-dimethyl-propyl)-8-oxo-3,6,7,8,9,10-hexahydro-2,3,9-triaza-(R)-cyclohepta[e]inden-7-yl]-amide], for which the negative-log IC50 (pIC50) on CGRP receptor [1] and on CGRP receptor [2] was 8.00 to 10.00 throughout.
On to `Cc1cc2c(c3cn[nH]c13)CN(C)C(=O)C(NC(=O)N1CCC(N3Cc4ccccc4NC3=O)CC1)C2` (stereo not drawn) [Example 30, 4-(2-Oxo-1,4-dihydro-2H-quinazolin-3-yl)-piperidine-1-carboxylic acid (4,9-dimethyl-8-oxo-3,6,7,8,9,10-hexahydro-2,3,9-triaza-cyclohepta[e]inden-7-yl)-amide], for which the pIC50 on CGRP receptor [1] and at CGRP receptor [2] was 7.00 to 8.00 throughout.
With `O=C(C[C@@H]1Cc2cc(Cl)c3[nH]ncc3c2CN(Cc2ncc[nH]2)C1=O)N1CCC(N2Cc3ccccc3NC2=O)CC1` [Example 54, (S)-9-((1H-Imidazol-2-yl)methyl)-4-chloro-7-(2-oxo-2-(4-(2-oxo-1,2-dihydroquinazolin-3(4H)-yl)piperidin-1-yl)ethyl)-6,7,9,10-tetrahydroazepino[3,4-e]indazol-8(3H)-one], the pIC50 at CGRP receptor [1] and at CGRP receptor [2] was 8.00 to 10.00 each time.
Consider `CC(C)(C)CN1Cc2c(ccc3[nH]ncc23)CC(NC(=O)N2CCC(N3Cc4ccccc4NC3=O)CC2)C1=O` (stereo not drawn) [Example 22, 4-(2-Oxo-1,4-dihydro-2H-quinazolin-3-yl)-piperidine-1-carboxylic acid [9-(2,2-dimethyl-propyl)-8-oxo-3,6,7,8,9,10-hexahydro-2,3,9-triaza-cyclohepta[e]inden-7-yl]-amide], for which the pIC50 at CGRP receptor [1] and at CGRP receptor [2] was 8.00 to 10.00 in each case.
`O=C(NC1Cc2ccc3[nH]ncc3c2CN(Cc2ccncc2)C1=O)N1CCC(N2Cc3ccccc3NC2=O)CC1` (stereo not drawn) [Example 28, 4-(2-Oxo-1,4-dihydro-2H-quinazolin-3-yl)-piperidine-1-carboxylic acid (8-oxo-9-pyridin-4-ylmethyl-3,6,7,8,9,10-hexahydro-2,3,9-triaza-cyclohepta[e]inden-7-yl)-amide]: the pIC50 on CGRP receptor [1] and at CGRP receptor [2] was 7.00 to 8.00 each time.
Take `CC(C)(C)CN1Cc2c(cc(Cl)c3[nH]ncc23)C[C@@H](CC(=O)N2CCC(c3cc4ccccc4[nH]c3=O)CC2)C1=O` [Example 43, (S)-4-Chloro-9-neopentyl-7-(2-oxo-2-(4-(2-oxo-1,2-dihydroquinolin-3-yl)piperidin-1-yl)ethyl)-6,7,9,10-tetrahydroazepino[3,4-e]indazol-8(3H)-one]: the pIC50 at CGRP receptor [1] and on CGRP receptor [2] was 8.00 to 10.00 in each case.
With `C[C@H](c1ccccc1)N1Cc2c(ccc3[nH]ncc23)C[C@@H](NC(=O)N2CCC(N3Cc4ccccc4NC3=O)CC2)C1=O` [Example 11, 4-(2-Oxo-1,4-dihydro-2H-quinazolin-3-yl)-piperidine-1-carboxylic acid [8-oxo-9-(1-(R)-phenyl-ethyl)-3,6,7,8,9,10-hexahydro-2,3,9-triaza-(R)-cyclohepta[e]inden-7-yl]-amide], the pIC50 at CGRP receptor [1] and at CGRP receptor [2] was 7.00 to 8.00 in each case.
For the compound `CC(C)(C)CN1Cc2c(cc(Cl)c3[nH]ncc23)C[C@@H](CC(=O)N2CCC(n3cc(-c4ccccc4)[nH]c3=O)CC2)C1=O` [Example 44, (S)-4-Chloro-9-neopentyl-7-(2-oxo-2-(4-(2-oxo-4-phenyl-2,3-dihydroimidazol-1-yl)piperidin-1-yl)ethyl)-6,7,9,10-tetrahydroazepino[3,4-e]indazol-8(3H)-one], the pIC50 on CGRP receptor [1] and on CGRP receptor [2] was 8.00 to 10.00 throughout.
As to `COc1cc2ccccc2cc1C1CCN(C(=O)C[C@@H]2Cc3cc(Cl)c4[nH]ncc4c3CN(CC(C)(C)C)C2=O)CC1` [Example 73, 1-[[7-(S)-4-choro-9-(2,2-Dimethylpropyl)-3,6,7,8,9,10-hexahydro-8-oxoazepino[3,4-e]indazol-7-yl]acetyl]-4-(3-methoxy-2-naphthalenyl)piperidine], at CGRP receptor [1], the pIC50 was < 6.00.
Consider `CC(C)c1cc2c(c3cn[nH]c13)CN(CC(C)(C)C)C(=O)[C@H](CC(=O)N1CCC(c3cc4cccc(F)c4[nH]c3=O)CC1)C2` [Example 105, (S)-7-(2-(4-(8-fluoro-2-oxo-1,2-dihydroquinolin-3-yl)piperidin-1-yl)-2-oxoethyl)-4-isopropyl-9-neopentyl-6,7,9,10-tetrahydroazepino[3,4-e]indazol-8(3H)-one], for which the pIC50 on CGRP receptor [1] is 7.00 to 8.00.
Still for that read-out and setting: with `O=C(C[C@@H]1Cc2cc(Cl)c3[nH]ncc3c2CN(Cc2ccncc2)C1=O)N1CCC(c2cc3cccc(F)c3[nH]c2=O)CC1` [Example 51, (S)-4-Chloro-7-(2-(4-(8-fluoro-2-oxo-1,2-dihydroquinolin-3-yl)piperidin-1-yl)-2-oxoethyl)-9-(pyridin-4-ylmethyl)-6,7,9,10-tetrahydroazepino[3,4-e]indazol-8(3H)-one] the figure was 8.00 to 10.00.
The same measure, in the same setting: with `O=C(C[C@@H]1Cc2cc(Cl)c3[nH]ncc3c2CN(CC(F)(F)F)C1=O)N1CCC(c2cc3cccnc3[nH]c2=O)CC1` [Example 89, (S)-4-chloro-7-(2-oxo-2-(4-(2-oxo-1,2-dihydro-1,8-naphthyridin-3-yl)piperidin-1-yl)ethyl)-9-(2,2,2-trifluoroethyl)-6,7,9,10-tetrahydroazepino[3,4-e]indazol-8(3H)-one] the figure was 8.00 to 10.00.

Broadly, the pIC50 is the negative decadic logarithm of the IC50, by convention in mol/L.
